Patent publication US9718781B2, “Methods and compounds for treating proliferative disorders and viral infections” (University College Dublin, National University of Ireland, …, priority 2012, dated 2017)
“And” between values parts separate entries of the source, which are not always exact repeats. Identical values can stand only once. Like-named read-outs stand apart in the source and are kept apart here.

Experiments:
[1] = test system: human platelets; experiment: U46619-induced human platelet aggregation ex vivo (platelet rich plasma); type: cell-based
Description: A modification of the turbidimetric method originally developed by Born & Cross (Born, G. V. and Cross, M. J., The Aggregation of Blood Platelets, J Physiol, 1963, 168:178-95) is used. The principle is based on the diffraction of the light by particles. When a light beam passes through a suspension of particles, it is diffracted, depending on the number and the size of the particles in suspension.
In the Born & Cross method, a light beam passes through a platelet suspension and the quantity of light is measured by a detector placed after the sample. Upon platelet aggregation, the size of platelet aggregates will increase while the total number of free platelets will decrease. Consequently, less light will be diffracted and the detector will record an increase in light intensity. The aggregometer has been developed based on these concepts. Variations in light transmission recorded by this device reflects the platelet physiology. When an agonist of platelet aggregation is added to a platelet suspension, platelets undergo activation and shape change. This step is characterized by an increase in platelet's apparent volume and thus a decrease of transmitted light. Subsequent platelet aggregation gradually forms aggregates of increasing size. Transmitted light slightly increases until a plateau is reached. The aggregation of platelet can be confirmed after the experiment by visual direct inspection of the test tube.
Preparation of platelet suspension is achieved by blood centrifugation at 160 g for 10 minutes. The PRP is re-centrifuged at 160 g for 10 min to remove contaminating red and white blood cells. The supernatant which is collected contains the platelets rich plasma (PRP). The remaining blood is subsequently centrifuged at 900 g for 15 min in order to retrieve plasma (platelets poor plasma, PPP). PRP is diluted with PPP to reach a final concentration of 150×10^3 […] PRP is kept warmed at 37° C. in the aggregometer and the adequate dilution of drug to test is introduced in the sample. Platelet aggregation is induced after 10 minutes incubation. Light transmission (T) is measured throughout the experiment, which is ended 8 minutes after induction of aggregation. Maximal light transmission (Tmax) is determined in the sample without drugs. Minimal light transmission (Tmin) is measured in PRP without inducer.
The effect of NTP4 and the previously identified lead TP antagonist, TP20, on U46619-mediated platelet aggregation in side-by-side comparisons was performed in platelet rich plasma (PRP) using the PAP-8E platelet aggregometer.
FIG. 4A-4C show the effect of TP20 & NTP4 on U46619-mediated platelet aggregation. PRP was prepared from blood taken from healthy volunteers into syringes containing 3.8% sodium citrate and 10 μM indomethacin such that the final ratio of anticoagulant to blood was 1:9. Aliquots of PRP (300 μl) were pre-incubated for 10 min with the TP antagonists, TP20 and NTP4, where 2-fold serial dilutions from 1 μM were prepared for each, prior to stimulating platelets with 1 μM U46619, incubated at 37° C., with stirring. FIG. 4A and FIG. 4B: Representative dose-response platelet aggregation profiles for TP20 (FIG. 4A) and NTP4 (FIG. 4B), where data is presented as Percentage Aggregation, as determined by changes in light transmission using the PAP-8E Platelet Aggregation Profiler as a function of time. FIG. 4C: The dose-response curves for platelet aggregation are presented as the mean (±S.E.M.) maximum Percentage Aggregation as a function of the log of the TP antagonist concentration. Data presented is representative of ≧6 independent experiments.

[2] = test system: human platelets; experiment: ADP-induced platelet aggregation of human platelets ex vivo; type: cell-based
Description: The method of assessing platelet aggregation also allows evaluation of the effect of the compounds of the invention on platelet aggregation upon stimulation by other agonists, e.g., adenosine diphosphate (ADP) and thrombin.

[3] = test system: A/Puerto Rico/8/1934 (H1N1) influenza A virus; type: in vivo, BALB/c mice
[4] = Phase 1 safety/tolerability study, repeat oral dosing; conditions: 360 μg/kg oral gavage twice daily
Description: Data is presented as mean body weight (±S.E.M.; FIG. 12A) or as mean percentage change in body weight (±S.E.M.; FIG. 12B) as a function of time.

[5] = PRP, PAP-8E aggregometer, 1 μM U46619, side-by-side, read-out: IC50 Value for Inhibition of U46619-Mediated Platelet Aggregation (Mean ± S.E.M.)
[6] = lung, Day 4, Tamiflu 10 mg/kg, TP20 0.36 mg/kg
[7] = lung, Day 4, number of animals of 3

COc1ccc(-c2cccc(Oc3ccc(C#N)cc3S(=O)(=O)NC(=O)NC(C)(C)C)c2)cc1 [NTP4, N-(tert-butylcarbamoyl)-5-cyano-2-((4′-methoxy-[1,1′-biphenyl]-3-yl)oxy)benzenesulfonamide]
IC50 ([1]; Homo sapiens, Platelet, PRP, PAP-8E aggregometer, 1 μM U46619, side-by-side, read-out: IC50 Value for Inhibition of U46619-Mediated Platelet Aggregation (Mean ± S.E.M.)): 41.5 ± 7.69 nM | IC50 [1, 5]: 40.3 ± 7.08 nM

COc1ccc(-c2cccc(Oc3ccc([N+](=O)[O-])cc3S(=O)(=O)NC(=O)NC(C)(C)C)c2)cc1 [TP20, N-(tert-butylcarbamoyl)-2-((4′-methoxy-[1,1′-biphenyl]-3-yl)oxy)-5-nitrobenzene-sulfonamide]
IC50 ([1]; Homo sapiens, Platelet, human platelets ex vivo, Table 3, read-out: IC50 data for inhibition of U46619-induced platelet aggregation): 4.71 nM | IC50 [1, 5]: 4.62 ± 0.72 nM | effect on ADP-induced platelet aggregation [2]: did not affect | mean time of death post-viral challenge ([3]; TP20 360 μg/kg oral gavage twice daily): 7.2 days | loss of body weight post-viral infection ([3]; Tamiflu 10 mg/kg, TP20 360 μg/kg, oral gavage twice daily): ≤ 30% | Alveolar Acute Inflammation, number of animals with the finding ([3]; lung, Day 4, 3 animals): (0) | Bronchiolar Erosion, number of animals with the finding ([3]; lung, Day 4, 3 animals): (3) | Bronchiolar Exudate, number of animals with the finding ([3]; lung, Day 4, 3 animals): (3) | Bronchiolar acute Inflammation, number of animals with the finding ([3]; lung, Day 4, 3 animals): (3) | Vascular Necrosis, number of animals with the finding ([3]; lung, Day 4, 3 animals): (0) | Extent of Perivascular Edema (Mean ± S.E.M.), Per Animal [3, 6]: 16.9 ± 1.09 (70) arbitrary units and 17.4 ± 0.98 (89) arbitrary units and 19.2 ± 1.10 (78) arbitrary units | Extent of Perivascular Edema (Mean ± S.E.M.), Per Treatment Group [3, 6]: 18.0 ± 0.59 arbitrary units | reduction in the perivascular edema compared to vehicle [3, 6]: approx. 20% | Bronchiolar Erosion, Mild [3, 7]: 3 | Bronchiolar Erosion, Minimal [3, 7]: 0 | Bronchiolar Erosion, Moderate [3, 7]: 0 | Bronchiolar Exudate, Mild [3, 7]: 1 | Bronchiolar Exudate, Minimal [3, 7]: 2 | Bronchiolar Exudate, Moderate [3, 7]: 0 | Bronchiolar acute Inflammation, Mild [3, 7]: 0 | Bronchiolar acute Inflammation, Minimal [3, 7]: 3 | Perivascular Edema, Mild [3, 7]: 0 | Perivascular Edema, Minimal [3, 7]: 3 | Perivascular Edema, number of animals with the finding ([3]; mouse, in vivo): (3) | tolerability [4]: well tolerated with no safety issues/concerns | survival on repeat dosing ([4]; 14 days monitoring): All mice survived | weight loss ([4]; at Day 7): ~4%
